Assay results taken from ChEMBL document CHEMBL5252602, “Identification and in silicon binding study of a novel NR2B selective NMDAR antagonist” (Bioorg Med Chem Lett, 2023).

What was measured:
[1] = tested on: SH-SY5Y; test: Neuroprotective activity against human SH-SY5Y cells assessed as effect on NMDA mediated cell damage at 0.05 uM by MTT assay relative to control; type: functional
[2] = tested on: SH-SY5Y; test: Neuroprotective activity against human SH-SY5Y cells assessed as effect on NMDA mediated cell damage at 0.5 uM by MTT assay relative to control; type: functional
[3] = tested on: SH-SY5Y; test: Neuroprotective activity against human SH-SY5Y cells assessed as effect on NMDA mediated cell damage at 5 uM by MTT assay relative to control; type: functional
[4] = biological target: Glutamate receptor ionotropic, NMDA 2B (Homo sapiens, UniProt Q05586+Q13224); test: Antagonist activity at NMDA receptor NR2B subunit (unknown origin)
Sequence of Glutamate receptor ionotropic, NMDA 2B (Q13224 whole entry, one chain of several): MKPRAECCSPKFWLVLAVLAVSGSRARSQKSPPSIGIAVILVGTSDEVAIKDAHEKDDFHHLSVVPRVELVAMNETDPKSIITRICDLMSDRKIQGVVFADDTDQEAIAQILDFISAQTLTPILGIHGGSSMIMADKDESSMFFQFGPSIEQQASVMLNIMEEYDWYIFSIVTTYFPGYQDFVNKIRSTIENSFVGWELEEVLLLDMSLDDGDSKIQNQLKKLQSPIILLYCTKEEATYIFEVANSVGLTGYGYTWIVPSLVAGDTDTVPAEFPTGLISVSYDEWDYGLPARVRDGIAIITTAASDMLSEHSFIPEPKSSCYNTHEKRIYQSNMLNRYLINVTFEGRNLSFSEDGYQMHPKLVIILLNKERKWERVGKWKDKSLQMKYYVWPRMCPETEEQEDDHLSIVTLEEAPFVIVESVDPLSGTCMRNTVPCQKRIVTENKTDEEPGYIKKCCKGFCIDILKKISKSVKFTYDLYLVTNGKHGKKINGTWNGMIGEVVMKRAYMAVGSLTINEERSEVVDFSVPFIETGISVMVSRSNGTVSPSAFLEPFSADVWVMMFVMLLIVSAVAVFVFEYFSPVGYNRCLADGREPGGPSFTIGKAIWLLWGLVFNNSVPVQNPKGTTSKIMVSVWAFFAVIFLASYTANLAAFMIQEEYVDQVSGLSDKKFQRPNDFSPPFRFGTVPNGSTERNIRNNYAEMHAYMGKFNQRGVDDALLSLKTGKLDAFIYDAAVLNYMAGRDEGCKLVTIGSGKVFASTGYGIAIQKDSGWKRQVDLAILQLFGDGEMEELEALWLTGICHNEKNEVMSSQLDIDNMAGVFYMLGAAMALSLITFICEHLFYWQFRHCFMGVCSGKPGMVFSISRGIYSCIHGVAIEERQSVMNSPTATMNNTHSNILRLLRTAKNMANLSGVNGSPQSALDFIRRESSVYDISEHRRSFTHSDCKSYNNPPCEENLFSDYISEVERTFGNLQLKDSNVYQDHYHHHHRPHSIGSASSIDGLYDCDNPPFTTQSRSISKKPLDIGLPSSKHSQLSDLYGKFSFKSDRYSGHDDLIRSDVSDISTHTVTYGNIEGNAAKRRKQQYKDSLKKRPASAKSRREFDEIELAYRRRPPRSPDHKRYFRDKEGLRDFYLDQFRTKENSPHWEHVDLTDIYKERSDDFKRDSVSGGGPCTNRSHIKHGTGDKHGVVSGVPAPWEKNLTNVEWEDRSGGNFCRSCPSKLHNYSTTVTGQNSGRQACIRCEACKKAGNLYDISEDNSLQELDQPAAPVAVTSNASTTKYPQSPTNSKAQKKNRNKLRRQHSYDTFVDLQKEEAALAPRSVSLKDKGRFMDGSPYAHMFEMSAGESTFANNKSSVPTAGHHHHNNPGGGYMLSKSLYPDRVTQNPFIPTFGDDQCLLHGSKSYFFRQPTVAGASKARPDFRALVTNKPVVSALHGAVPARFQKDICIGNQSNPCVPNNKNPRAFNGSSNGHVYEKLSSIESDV

| IC50 [4] | Structure (SMILES) | Activity [1] | Activity [2] | Activity [3] |
| --- | --- | --- | --- | --- |
| – | O=C(NNC(=O)[C@@H]1CCC2=Nc3ccc(Cl)cc3CN21)c1ccc(O)cc1 | 16.03% | 22.55% | 22.58% |
| – | O=C(NNC(=O)[C@@H]1CCC2=Nc3ccc(Br)cc3CN21)c1ccc(F)cc1 | 23.87% | 19.88% | 19.48% |
| – | O=C(NNC(=O)[C@@H]1CCC2=Nc3ccc(Br)cc3CN21)c1ccccc1 | 7.13% | 20.92% | 18.22% |
| – | O=C(NCCc1cccc(O)c1)[C@@H]1CCC2=Nc3ccc(Br)cc3CN21 | 28.73% | 28.87% | 25.35% |
| – | O=C(NCCc1cccc(O)c1)[C@@H]1CCC2=Nc3ccccc3CN21 | 29.63% | 29.17% | 24.42% |
| – | O=C(NCCc1ccc(F)cc1)[C@@H]1CCC2=Nc3ccc(Br)cc3CN21 | 4.05% | 7.08% | -2.81% |
| – | O=C(NCCc1ccc(F)cc1)[C@@H]1CCC2=Nc3ccc(Cl)cc3CN21 | 13.45% | 27.96% | 26.14% |
| – | Nc1ccc(C(=O)NNC(=O)[C@@H]2CCC3=Nc4ccc(Br)cc4CN32)cc1 | 25.12% | 24.22% | 15.62% |
| – | Nc1ccc(C(=O)NNC(=O)[C@@H]2CCC3=Nc4ccc(Cl)cc4CN32)cc1 | 30.71% | 25.28% | 20.43% |
| – | Nc1ccc(CCNC(=O)[C@@H]2CCC3=Nc4ccc(Br)cc4CN32)cc1 | -15.74% | -15.08% | -11.03% |
| – | Nc1ccc(CCNC(=O)[C@@H]2CCC3=Nc4ccc(Cl)cc4CN32)cc1 | -5.03% | -16.58% | -15.32% |
| – | O=C(NCCc1ccc(O)cc1)[C@@H]1CCC2=Nc3ccc(Cl)cc3CN21 | 28.93% | 28.33% | 21.32% |
| – | O=C(NCCc1ccccc1)[C@@H]1CCC2=Nc3ccc(Br)cc3CN21 | 11.08% | 7.54% | 10.59% |
| – | COc1ccc(CCNC(=O)[C@@H]2CCC3=Nc4ccc(Cl)cc4CN32)cc1 | 17.35% | 30.19% | 30.66% |
| – | COc1ccc(C(=O)NNC(=O)[C@@H]2CCC3=Nc4ccc(Cl)cc4CN32)cc1 | 19.6% | 20.2% | 12.17% |
| – | O=C(NNC(=O)[C@@H]1CCC2=Nc3ccc(Cl)cc3CN21)c1ccc(F)cc1 | 22.58% | 20.68% | 17.26% |
| – | O=C(NNC(=O)[C@@H]1CCC2=Nc3ccc(Cl)cc3CN21)c1ccccc1 | 26.91% | 24.25% | 19.76% |
| – | O=C(NCCc1ccccc1)[C@@H]1CCC2=Nc3ccc(Cl)cc3CN21 | 13.21% | 5.78% | 10.01% |
| – | COc1ccc(C(=O)NNC(=O)[C@@H]2CCC3=Nc4ccccc4CN32)cc1 | 12.59% | 17.74% | 22.42% |
| – | COc1ccc(CCNC(=O)[C@@H]2CCC3=Nc4ccc(Br)cc4CN32)cc1 | 27.75% | 27.25% | 17.27% |
| – | COc1ccc(C(=O)NNC(=O)[C@@H]2CCC3=Nc4ccc(Br)cc4CN32)cc1 | 9.01% | 15.94% | 19.77% |
| – | O=C(NCCc1cccc(O)c1)[C@@H]1CCC2=Nc3ccc(Cl)cc3CN21 | 23.62% | 28.02% | 29.37% |
| 17 nM | Cc1nccn1Cc1cc(-c2ccc(F)c(C(F)F)c2)cnn1 [EVT-101 FREE BASE] | – | – | – |
| – | CC(C(O)c1ccc(O)cc1)N1CCC(Cc2ccccc2)CC1 (stereo not given) [IFENPRODIL] | 16.4% | 22.57% | 35.81% |
